Results from ChEMBL document CHEMBL5390307, “Sila-CBD Derivatives as Inhibitors of Heme-Induced NLRP3 Inflammasome: Application in Hemolytic Diseases” (ACS Med Chem Lett, 2023).
Active and inactive are the calls of the source. No cut-off for these calls is given here.

Assays:
Mus musculus [1] = assay: Antiinflammatory activity against LPS/HEME-induced Balb/C mouse model assessed as reduction of IL-1 beta secretion at 1 mg/kg, ip administered for 30 mins followed by LPS for 4 hrs incubation and later stimulated with HEME for 1 hrs by ELISA; format: functional, organism-based; conditions: time 330.0 min
J774.A1 = assay: Cytotoxicity against mouse J774.A1 cells assessed as reduction in cell viability at 10 uM incubated for 24 hrs by MTT assay; format: toxicity, cell-based; conditions: j774.a1, 24 h
[2] = target: NACHT, LRR and PYD domains-containing protein 3 (Homo sapiens) (UniProt Q96P20); assay: Inhibition of NLRP3 mediated in HEME-induced inflammasome in human PMA differentiated THP-1 cells assessed as reduction in IL-1beta level in presence of LPS at 10 uM pretreated for 1 hr followed by hemin addition measured after 1 hrs by ELISA method; format: cell-based; conditions: time 2.0 hrs
Chain of NACHT, LRR and PYD domains-containing protein 3 (Homo sapiens) (Q96P20 whole entry, the tested form may be a part): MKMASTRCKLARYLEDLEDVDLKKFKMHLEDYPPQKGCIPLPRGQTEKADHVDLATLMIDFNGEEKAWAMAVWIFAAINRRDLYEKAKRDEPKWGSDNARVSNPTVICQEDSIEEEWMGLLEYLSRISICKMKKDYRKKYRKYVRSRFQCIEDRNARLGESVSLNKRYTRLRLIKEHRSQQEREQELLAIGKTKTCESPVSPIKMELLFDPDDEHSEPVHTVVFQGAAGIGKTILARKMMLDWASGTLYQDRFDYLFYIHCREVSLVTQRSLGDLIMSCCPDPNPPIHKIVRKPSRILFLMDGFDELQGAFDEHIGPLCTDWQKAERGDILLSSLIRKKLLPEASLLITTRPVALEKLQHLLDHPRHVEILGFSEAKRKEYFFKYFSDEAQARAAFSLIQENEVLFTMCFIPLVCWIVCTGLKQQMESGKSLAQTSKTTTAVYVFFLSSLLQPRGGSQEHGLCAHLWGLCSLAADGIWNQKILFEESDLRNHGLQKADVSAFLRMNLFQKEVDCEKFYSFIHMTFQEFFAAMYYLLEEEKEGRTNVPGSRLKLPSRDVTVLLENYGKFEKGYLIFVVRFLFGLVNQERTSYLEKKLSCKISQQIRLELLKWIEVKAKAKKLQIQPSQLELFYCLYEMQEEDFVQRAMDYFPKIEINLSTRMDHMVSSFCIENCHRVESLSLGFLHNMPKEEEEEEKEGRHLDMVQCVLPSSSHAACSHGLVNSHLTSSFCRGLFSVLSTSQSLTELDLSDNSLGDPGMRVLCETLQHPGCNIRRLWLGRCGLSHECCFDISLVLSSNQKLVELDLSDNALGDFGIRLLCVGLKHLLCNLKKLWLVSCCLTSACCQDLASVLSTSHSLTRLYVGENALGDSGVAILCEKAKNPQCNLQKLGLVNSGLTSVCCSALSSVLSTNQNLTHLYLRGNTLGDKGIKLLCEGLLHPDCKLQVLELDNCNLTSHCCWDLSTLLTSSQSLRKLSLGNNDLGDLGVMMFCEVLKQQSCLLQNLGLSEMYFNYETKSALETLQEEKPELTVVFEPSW

[3] = target: NACHT, LRR and PYD domains-containing protein 3 (Homo sapiens) (UniProt Q96P20); assay: Inhibition of NLRP3 mediated in HEME-induced inflammasome in human PMA differentiated THP-1 cells assessed as reduction in IL-1beta level in presence of LPS at 1 uM pretreated for 1 hr followed by hemin addition measured after 1 hrs by ELISA method; format: cell-based; conditions: time 2.0 hrs
[4] = target: NACHT, LRR and PYD domains-containing protein 3 (Mus musculus) (UniProt Q8R4B8); assay: Inhibition of NLRP3 inflammasome in mouse J774.A1 cells assessed as reduction in IL-6 in presence of LPS at 10 uM pretreated for 1 hr followed by LPS stimulation measured after 24 hrs by ELISA method; format: cell-based; conditions: time 25.0 hrs
Chain of NACHT, LRR and PYD domains-containing protein 3 (Mus musculus) (Q8R4B8 whole entry, the tested form may be a part): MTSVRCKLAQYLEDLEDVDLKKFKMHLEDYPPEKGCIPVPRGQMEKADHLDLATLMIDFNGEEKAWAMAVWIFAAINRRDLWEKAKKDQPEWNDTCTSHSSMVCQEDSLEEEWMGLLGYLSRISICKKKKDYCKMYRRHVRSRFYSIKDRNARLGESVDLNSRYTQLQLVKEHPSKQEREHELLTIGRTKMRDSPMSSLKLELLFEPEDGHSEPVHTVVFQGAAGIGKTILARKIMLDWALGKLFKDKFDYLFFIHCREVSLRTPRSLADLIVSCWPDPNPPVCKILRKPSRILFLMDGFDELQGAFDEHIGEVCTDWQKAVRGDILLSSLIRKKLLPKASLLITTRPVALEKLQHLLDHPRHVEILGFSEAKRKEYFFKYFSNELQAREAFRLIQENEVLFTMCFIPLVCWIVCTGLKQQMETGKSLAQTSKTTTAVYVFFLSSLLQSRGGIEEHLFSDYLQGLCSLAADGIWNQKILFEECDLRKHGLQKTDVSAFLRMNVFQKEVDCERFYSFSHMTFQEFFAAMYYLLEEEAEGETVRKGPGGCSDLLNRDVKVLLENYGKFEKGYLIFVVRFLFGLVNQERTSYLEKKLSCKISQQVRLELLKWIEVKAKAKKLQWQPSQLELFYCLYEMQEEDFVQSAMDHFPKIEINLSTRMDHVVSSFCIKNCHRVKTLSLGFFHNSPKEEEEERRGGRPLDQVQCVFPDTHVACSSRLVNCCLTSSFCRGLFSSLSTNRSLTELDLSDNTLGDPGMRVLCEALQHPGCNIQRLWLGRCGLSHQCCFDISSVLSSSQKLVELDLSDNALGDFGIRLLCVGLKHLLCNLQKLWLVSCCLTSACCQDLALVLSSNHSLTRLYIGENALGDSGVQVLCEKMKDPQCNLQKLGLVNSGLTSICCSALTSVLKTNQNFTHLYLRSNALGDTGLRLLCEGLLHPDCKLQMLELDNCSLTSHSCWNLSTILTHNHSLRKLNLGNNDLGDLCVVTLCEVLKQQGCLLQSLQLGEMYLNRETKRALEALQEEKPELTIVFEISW

[5] = target: NACHT, LRR and PYD domains-containing protein 3 (Mus musculus) (UniProt Q8R4B8); assay: Inhibition of NLRP3 inflammasome in mouse J774.A1 cells assessed as reduction in TNF-alpha in presence of LPS at 0.1 to 1 uM pretreated for 1 hr followed by LPS stimulation measured after 24 hrs by ELISA method; format: cell-based; conditions: dose 0.1-1 µM, time 25.0 hrs
[6] = target: NACHT, LRR and PYD domains-containing protein 3 (Mus musculus) (UniProt Q8R4B8); assay: Inhibition of NLRP3 inflammasome in mouse J774.A1 cells assessed as reduction in IL-6 in presence of LPS at 0.1 to 1 uM pretreated for 1 hr followed by LPS stimulation measured after 24 hrs by ELISA method; format: cell-based; conditions: dose 0.1-1 µM, time 25.0 hrs
[7] = target: NACHT, LRR and PYD domains-containing protein 3 (Homo sapiens) (UniProt Q96P20); assay: Inhibition of NLRP3 mediated in HEME-induced inflammasome in human PMA differentiated THP-1 cells assessed as reduction in IL-1beta level in presence of LPS at 0.1 to 10 uM pretreated for 1 hr followed by hemin addition measured after 1 hrs by ELISA method; format: cell-based; conditions: dose 0.1-10 µM, time 2.0 hrs
[8] = target: NACHT, LRR and PYD domains-containing protein 3 (Mus musculus) (UniProt Q8R4B8); assay: Inhibition of NLRP3 inflammasome in mouse J774.A1 cells assessed as reduction in TNF-alpha in presence of LPS at 10 uM pretreated for 1 hr followed by LPS stimulation measured after 24 hrs by ELISA method; format: cell-based; conditions: time 25.0 hrs
[9] = target: NACHT, LRR and PYD domains-containing protein 3 (Homo sapiens) (UniProt Q96P20); assay: Inhibition of NLRP3 mediated in HEME-induced inflammasome in human PMA differentiated THP-1 cells assessed as reduction in IL-1beta level in presence of LPS at 10 uM pretreated for 1 hr followed by hemin addition measured after 1 hrs by ELISA method relative to control; format: cell-based; conditions: time 2.0 hrs
Mus musculus [10] = assay: Antiinflammatory activity against LPS/HEME-induced Balb/C mouse model assessed as reduction of IL-1 beta secretion at 30 mg/kg, ip administered for 30 mins followed by LPS for 4 hrs incubation and later stimulated with HEME for 1 hrs by ELISA; format: functional, organism-based; conditions: time 330.0 min
Mus musculus [11] = assay: Antiinflammatory activity against LPS/HEME-induced Balb/C mouse model assessed as reduction of IL-1 beta secretion at 10 mg/kg, ip administered for 30 mins followed by LPS for 4 hrs incubation and later stimulated with HEME for 1 hrs by ELISA; format: functional, organism-based; conditions: time 330.0 min
[12] = Metabolic stability in human liver microsomes assessed as drug degradation measured after 5 mins by LC-MS method relative to control; format: ADME, Microsome; conditions: read-out: Drug degradation
[13] = target: NACHT, LRR and PYD domains-containing protein 3 (Homo sapiens) (UniProt Q96P20); assay: Inhibition of NLRP3 mediated in HEME-induced inflammasome in human PMA differentiated THP-1 cells assessed as reduction in IL-1beta level in presence of LPS at 1 uM pretreated for 1 hr followed by hemin addition measured after 1 hrs by ELISA method relative to control; format: cell-based; conditions: time 2.0 hrs
[14] = target: NACHT, LRR and PYD domains-containing protein 3 (Homo sapiens) (UniProt Q96P20); assay: Inhibition of NLRP3 mediated in HEME-induced inflammasome in human PMA differentiated THP-1 cells assessed as reduction in IL-1beta level in presence of LPS at 0.1 uM pretreated for 1 hr followed by hemin addition measured after 1 hrs by ELISA method relative to control; format: cell-based; conditions: time 2.0 hrs
[15] = Metabolic stability in mouse liver microsomes assessed as drug degradation in the presence of NADPH measured after 5 mins by LC-MS method; format: ADME, Microsome
[16] = Metabolic stability in mouse liver microsomes in presence of NADPH measured after 5 mins by single ion monitoring mode based LC-MS method; format: ADME, Microsome
[17] = Metabolic stability in mouse liver microsomes assessed as drug degradation measured after 5 mins in absence of NADPH by single ion monitoring mode based LC-MS method relative to control; format: ADME, Microsome; conditions: read-out: Drug degradation

Row | SMILES | Activity (J774.A1) | inhibition [3] | inhibition [5] | inhibition [6] | also measured
1 | COc1cc2c(c(OC)c1OC)-c1ccc(OC)c(=O)cc1[C@@H](NC(C)=O)CC2 |  |  |  |  | Activity (Mus musculus [1]): Active
2 | CCCC[Si](C)(C)c1cc(O)c(C/C=C(\C)CCC=C(C)C)c(O)c1 | Non-Toxic |  |  |  | 
3 | C=C(C)[C@@H]1CCC(C)=C[C@H]1c1c(O)cc([Si](C)(C)CCCC)cc1O | Non-Toxic |  |  |  | 
4 | CCCC[Si](C)(C)C1=CC(=O)C(C/C=C(\C)CCC=C(C)C)=C(O)C1=O | Non-Toxic | Active | inactive | inactive | inhibition [2]: Active; inhibition [4]: Active
5 | CCCCCC1=CC(=O)C(C/C=C(\C)CCC=C(C)C)=C(O)C1=O |  |  |  |  | inhibition [7]: inactive
6 | CC(C)=CCC/C(C)=C/CC1=C(O)C(=O)C([Si](C)(C)C)=CC1=O | Non-Toxic | Active | inactive | inactive | inhibition [2]: Active; inhibition [8]: Active
7 | CCCCCc1cc(O)c(C/C=C(\C)CCC=C(C)C)c(O)c1 |  | Active |  |  | 
8 | CCCCCC[Si](C)(C)c1cc(O)c(C/C=C(\C)CCC=C(C)C)c(O)c1 | Non-Toxic | Active |  |  | inhibition [9]: 60%
9 | CC(C)=CCC/C(C)=C/Cc1c(O)cc([Si](C)(C)C)cc1O | Non-Toxic |  |  |  | 
10 | C=C(C)[C@@H]1CCC(C)=C[C@H]1C1=C(O)C(=O)C([Si](C)(C)C)=CC1=O | Non-Toxic |  | Active | Active | Activity (Mus musculus [10]): Active; Activity (Mus musculus [11]): Active; metabolised at 5 min [12]: 10%; inhibition [9]: > 80%; inhibition [13]: > 50%; inhibition [8]: Active; inhibition [14]: > 20%; Drug degradation [15]: Stable
11 | CCCCCC[Si](C)(C)C1=CC(=O)C(C/C=C(\C)CCC=C(C)C)=C(O)C1=O | Non-Toxic | Active | inactive | inactive | inhibition [2]: Active; inhibition [4]: Active
12 | C=C(C)[C@@H]1CCC(C)=C[C@H]1c1c(O)cc([Si](C)(C)CCCCCC)cc1O | Non-Toxic |  |  |  | 
13 | C=C(C)[C@@H]1CCC(C)=C[C@H]1C1=C(O)C(=O)C(CCCCC)=CC1=O |  |  |  |  | Stability [16]: Stable; metabolised at 5 min [17]: < 20%; inhibition [7]: inactive
